Source: patent publication US20020082261A1, “PROPHYLACTIC OR THERAPEUTIC AGENTS FOR DISEASES HAIVNG VASCULAR DYSFUNCTION ASSOCIATED WITH INSULIN RESISTANCE” (priority 1998, published 2002)
Structures can show the parent of a compound that is named as a salt.

How the values were obtained:
[1] = as reported in Japanese Patent Public Disclosure No. 25323/84; cited from earlier work
rats = test: Acute toxicity via oral route in rats; type: in vivo
[2] = tested on: superoxide anion (O2−) production level in thoracic aorta tissue sections; test: Superoxide anion (O2−) production level in thoracic aorta tissue sections, lucigenin-enhanced chemiluminescence, after 8 weeks oral dosing; type: in vivo, Male Sprague-Dawley rats; conditions: endothelium-separated sections EC (−), comparison among the 4 groups (CTR, CTR+BH4, FR, FR+BH4)
Protocol: Male Sprague-Dawley rats (150 g, supplied from Charles River) were used to prepare a model group with insulin resistance induced by fructose feed loading (hereinafter referred to as “FR group”) according to the procedure described by Hwang et al. (Hwang, I-H. et al., Hypertension 10:512, 1987). A control group grown with a starch feed (hereinafter referred to as “CTR group”) was also prepared (FR group: n=16; CTR group: n=16). FR group received a feed containing 67% (hereinafter meaning % by weight) carbohydrate (containing 98% fructose available from Oriental Yeast Co., Ltd.), 13% fat and 20% protein, while CTR group received a feed containing 58% carbohydrate, 12% fat and […]. […] After 8 weeks, the thoracic aorta was collected. For each group, endothelium-separated sections (EC (−)) and non-separated sections (EC (+)) were prepared and examined for superoxide anion (O2^−) production level, endothelial NOS (eNOS) activity and endothelium-dependent vasorelaxation.
Group-to-group statistic analyses were made by one-way ANOVA, with the significance level being p<0.05. Multiple comparison was made by Bonferronl/Dunn, with the significance level being p<0.05.
Measurement of O2^−production level was made by the lucigenin-enhanced chemiluminescence method (Ohara et al., J. Clin. Invest. 91: 2546, 1993).

Q: For `C[C@H](O)[C@H](O)C1CNc2nc(N)[nH]c(=O)c2N1` (stereo partly drawn) [(6R,S)-5,6,7,8-tetrahydrobiopterin], which toxicity [1] is on record?
A: only slightly toxic

Q: Which acute toxicity (rats) does the source give for `C[C@H](O)[C@H](O)[C@H]1CNc2nc(N)[nH]c(=O)c2N1` [BH4 dihydrochloride, (6R)-L-erythro-5,6,7,8-tetrahydrobiopterin] here?
A: ≥ 2 g/kg (body weight)

Q: For `C[C@H](O)[C@H](O)[C@H]1CNc2nc(N)[nH]c(=O)c2N1` [BH4, (6R)-L-erythro-5,6,7,8-tetrahydrobiopterin], which “O2− production level in EC (−)” value [2] is on record?
A: No significant difference
